Data published in patent publication US7880007B2, “Bicyclic substituted phenyl piperidine modulators of muscarinic receptors” (Vertex Pharmaceuticals Incorporated, priority 2004, dated 2011).

Tests used:
Format in all cases: cell-based
M1 muscarinic receptor = target: T1, M1 muscarinic receptor (Homo sapiens, UniProt P11229); test: Functional mobilization of intracellular calcium (FLIPR), M1-CHO cells; settings: for M1 Activity: M1-CHO cells, calcium mobilization (FLIPR)
T1 construct: expressed in transfected cells; host or cells: CHO (M1-CHO)
T1 sequence (P11229 1-460): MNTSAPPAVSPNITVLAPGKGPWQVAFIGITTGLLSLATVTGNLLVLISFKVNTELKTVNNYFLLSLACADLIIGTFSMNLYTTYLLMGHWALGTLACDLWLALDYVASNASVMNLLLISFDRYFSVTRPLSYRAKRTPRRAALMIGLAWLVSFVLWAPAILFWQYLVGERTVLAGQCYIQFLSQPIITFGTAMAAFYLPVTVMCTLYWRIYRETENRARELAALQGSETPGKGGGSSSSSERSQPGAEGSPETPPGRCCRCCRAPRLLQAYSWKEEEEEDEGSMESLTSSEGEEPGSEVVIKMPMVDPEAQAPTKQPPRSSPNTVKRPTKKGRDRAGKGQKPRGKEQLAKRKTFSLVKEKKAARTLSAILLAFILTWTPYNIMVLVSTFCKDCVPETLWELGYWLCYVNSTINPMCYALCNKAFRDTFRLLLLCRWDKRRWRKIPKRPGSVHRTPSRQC
How it was run: (§1)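 CHO cells expressing human M1–M4 receptors loaded with Fluo-3 AM or Calcium 3 dye (1 mM probenecid, pH 7.4); 0.5% DMSO final. Agonist mode: compound added directly; antagonist mode: 15 min pre-incubation or co-application, then carbachol at EC80. Fluorescence read 60 s on FLIPR; efficacy relative to carbachol maximum.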

M4 muscarinic receptor = target: T2, M4 muscarinic receptor (Homo sapiens, UniProt P08173); test: Functional mobilization of intracellular calcium (FLIPR), M4-CHO cells; settings: for M4 Activity: M4-CHO cells, calcium mobilization (FLIPR)
T2 construct: expressed in transfected cells; host or cells: CHO (M4-CHO)
T2 sequence (P08173 1-479): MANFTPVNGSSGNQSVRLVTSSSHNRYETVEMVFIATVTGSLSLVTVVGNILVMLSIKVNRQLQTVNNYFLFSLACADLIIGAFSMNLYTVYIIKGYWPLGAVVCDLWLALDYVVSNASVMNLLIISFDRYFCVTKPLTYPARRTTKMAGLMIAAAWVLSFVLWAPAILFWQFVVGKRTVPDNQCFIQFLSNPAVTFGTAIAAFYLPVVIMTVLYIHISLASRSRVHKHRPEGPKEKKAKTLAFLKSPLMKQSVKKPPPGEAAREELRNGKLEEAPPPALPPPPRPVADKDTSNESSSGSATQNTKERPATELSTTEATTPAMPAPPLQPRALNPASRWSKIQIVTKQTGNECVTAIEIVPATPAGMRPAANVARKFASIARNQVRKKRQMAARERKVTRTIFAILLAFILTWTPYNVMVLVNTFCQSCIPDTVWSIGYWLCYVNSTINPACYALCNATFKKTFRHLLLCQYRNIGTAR
How it was run: as §1

M3 muscarinic receptor = target: T3, M3 muscarinic receptor (Homo sapiens, UniProt P20309); test: Functional mobilization of intracellular calcium (FLIPR), M3-CHO cells
T3 construct: expressed in transfected cells; host or cells: CHO (M3-CHO)
T3 sequence (P20309 whole entry): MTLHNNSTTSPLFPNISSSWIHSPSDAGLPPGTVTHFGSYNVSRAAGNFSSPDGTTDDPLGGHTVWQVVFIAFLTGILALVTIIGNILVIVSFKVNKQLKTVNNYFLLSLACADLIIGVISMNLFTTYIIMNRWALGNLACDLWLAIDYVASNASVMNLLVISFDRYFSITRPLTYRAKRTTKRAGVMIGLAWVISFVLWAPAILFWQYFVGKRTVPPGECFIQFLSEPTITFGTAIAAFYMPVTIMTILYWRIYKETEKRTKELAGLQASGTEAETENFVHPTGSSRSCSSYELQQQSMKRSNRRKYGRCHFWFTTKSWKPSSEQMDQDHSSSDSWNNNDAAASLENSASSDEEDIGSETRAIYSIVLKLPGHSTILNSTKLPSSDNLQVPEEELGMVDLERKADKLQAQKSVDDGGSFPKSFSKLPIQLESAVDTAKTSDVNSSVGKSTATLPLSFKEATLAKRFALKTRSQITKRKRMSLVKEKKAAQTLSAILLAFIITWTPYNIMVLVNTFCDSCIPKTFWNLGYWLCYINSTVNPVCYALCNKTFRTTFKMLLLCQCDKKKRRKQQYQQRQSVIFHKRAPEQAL
Procedure: Functional Mobilization of Intracellular Calcium to Determine Muscarinic Receptor Activity:
CHO cells expressing muscarinic receptors (M1 to M5) are grown as monolayers in tissue culture flasks at 37° C. in a humidified atmosphere containing 5% CO2 and passaged every 3-5 days. The growth media is Dulbecco's modified eagles medium (DMEM, Gibco Cat #12430-054), containing 25 mM Hepes and supplemented with Fetal Bovine Serum (Hyclone, cat #SH30071.03), 0.1 mM of MEM non-essential amino acids (GIBCO, Cat #11140-050), 1 mM MEM Sodium Pyruvate (GIBCO Cat #11360-070) and 100 units/ml of Penicillin G and 100 μg/ml of Streptomycin (GIBCO Cat #15140-122). The recombinant muscarinic receptor cell lines are grown under antibiotic pressure with media containing 25 μg/ml zeocin and 500 μg/ml G418 (M1-CHO), 4 μg/ml puromycin, 50 μg/ml zeocin and 2.5 μg/ml blasticidin (M2 and M4-CHO) or 50 μg/ml zeocin and 4 μg/ml puromycin (M3 and M5-CHO).
Cells are harvested at 80-90% confluence using Versene (GIBCO Cat #15040-066), collected by centrifugation and seeded 18-24 hrs prior to running the calcium assay at a density of 5,000-10,000 cells/well in […], clear-bottomed 384-well plates (BD Biocoat, poly-D-lysine, Cat #356663). The day of the experiment, the cells are washed with a plate washer (Bioteck Instruments, ELX 405) using bath 1 buffer (140-mM NaCl, 4.5-mM KCl, 2-mM CaCl2, 1-mM MgCl2, 10-mM Hepes-Na, 10-mM Glucose, pH 7.4, with NaOH) containing 1 mM Probenecid. Next, the calcium dye Fluo-3 (25 μl/well of Fluo-3 AM at 4 μM, Molecular Probes F-1241, in Bath 1 buffer containing 1 mM Probenecid) is added to the 25 μl of Bath 1 remaining in each well after the plate wash and the dye is loaded at 37° C. in the tissue culture incubator for 60-90 min. The fluorescent dye is removed using the plate washer with Bath 1 containing 1 mM Probenecid, leaving 25 μl/well of this solution after the wash. Alternatively, cells can be loaded with the calcium indicator from Molecular Devices (Calcium 3 Assay Reagents, Cat #R7181) adding 5 μl of a 5× solution dye in Bath 1 containing 1 mM Probenecid (10 ml per dye flask cat #R7182 to generate a solution 20×) to 20 μl of the same buffer. After loading for 60 min, the experiment can be run without having to remove the dye.
Compounds are prepared at a 2× fold concentration in a 96-well plate (round bottom, Costar Corning cat #3656), by reconstituting the pre-spotted compounds in bath 1 containing 1 mM probenecid. The final concentration DMSO is 0.5%, and the amount of DMSO is normalized across the assay plate. To determine an agonist action of the compounds on muscarinic receptors, the reconstituted compounds are added (25 μl compound/well) to the cell assay plate (containing 25 μl/well) using the multi-channel robotic system of the FLIPR 3 Instrument (Molecular Devices, Sunnyvale, Calif.). To determine a functional inhibitory action of the compounds on muscarinic receptors, the reconstituted compounds are added (25 μl compound/well) to the assay plate and pre-incubated for 15 min prior to adding 25 μl of Carbachol at 3× the EC80 for each muscarinic subtype. Alternatively, the compounds can be co-applied simultaneously with the agonist. In both assay modes, the fluorescence is recorded for 60 sec (excitation wavelength is […] and emission wavelength 540 nm) using the FLIPR 3 instrument.
The potency, efficacy and selectivity of the muscarinic compounds were evaluated by screening the compound activity across the whole family (M1 to M5 cells). Compounds were also screened for activity on other proteins such as other GPCRs and ion channels to determine selectivity on M4 receptors.
Examples of activities and efficacies of the muscarinic compounds of formulae (I, Ia, Ib, and II) on modulating M1, M2, M3 and M4 receptors are shown below in Table 3. […]

M2 muscarinic receptor = target: T4, M2 muscarinic receptor (Homo sapiens, UniProt P08172); test: Functional mobilization of intracellular calcium (FLIPR), M2-CHO cells; settings: for M2 Activity: M2-CHO cells, calcium mobilization (FLIPR)
T4 construct: expressed in transfected cells; host or cells: CHO (M2-CHO)
T4 sequence (P08172 1-466): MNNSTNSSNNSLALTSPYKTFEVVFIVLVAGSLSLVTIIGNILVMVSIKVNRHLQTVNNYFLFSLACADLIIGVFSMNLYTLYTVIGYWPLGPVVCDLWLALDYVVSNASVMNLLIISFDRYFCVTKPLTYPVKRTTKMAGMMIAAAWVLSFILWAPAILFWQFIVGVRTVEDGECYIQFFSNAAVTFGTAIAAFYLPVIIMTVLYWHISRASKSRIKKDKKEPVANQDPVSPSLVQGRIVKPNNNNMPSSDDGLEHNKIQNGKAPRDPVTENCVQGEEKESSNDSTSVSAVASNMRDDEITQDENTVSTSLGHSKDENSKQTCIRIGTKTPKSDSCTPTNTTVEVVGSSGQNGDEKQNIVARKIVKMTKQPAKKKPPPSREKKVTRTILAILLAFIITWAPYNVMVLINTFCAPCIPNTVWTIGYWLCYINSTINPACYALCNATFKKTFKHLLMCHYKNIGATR
How it was run: as §1

[1] = 100% efficacy = maximum response obtained with the Carbachol control
[2] = 100% efficacy is the maximum response obtained with the Carbachol control

Row | SMILES | Emax (M1 muscarinic receptor; [1]) | M1 Activity (M1 muscarinic receptor) | Emax (M4 muscarinic receptor; [1]) | M4 Activity (M4 muscarinic receptor) | Emax (M3 muscarinic receptor; [1]) | M3 Activity (M3 muscarinic receptor; M3-CHO cells, calcium mobilization (FLIPR)) | Emax (M2 muscarinic receptor; [1]) | M2 Activity (M2 muscarinic receptor) | Emax (M1 muscarinic receptor; [2]) | Emax (M4 muscarinic receptor; [2]) | Emax (M2 muscarinic receptor; [2])
1 | Fc1ccccc1-c1ccccc1C1CCN(C2CC3CC[C@H]2C3)CC1 (stereo in doubt) [Compound 10, 1-((1S,2R,4R)-bicyclo[2.2.1]heptan-2-yl)-4-(2′-fluorobiphenyl-2-yl)piperidine] | < 25% | + (activity was measured to be greater than 5.0 μM) | 25 to 100% | ++ (activity was measured to be from 1.0 μM to 5.0 μM) | < 25% | + (activity was measured to be greater than 5.0 μM) | 25 to 100% | + (activity was measured to be greater than 5.0 μM) |  |  | 
2 | COc1ccc(Cl)cc1C1(O)CCN(C[C@@H]2C[C@H]3C=C[C@H]2C3)CC1 [Compound 319] | < 25% | + (activity was measured to be greater than 5.0 μM) | 25 to 100% | ++ (activity was measured to be from 1.0 μM to 5.0 μM) |  |  | < 25% | + (activity was measured to be greater than 5.0 μM) |  |  | 
3 | CCCC1CCC(N2CCC(C#N)(c3ccccc3OC)CC2)CC1 (centres unmarked) [Compound 335] | 25 to 100% | ++ (activity was measured to be from 1.0 μM to 5.0 μM) | 25 to 100% | ++ (activity was measured to be from 1.0 μM to 5.0 μM) |  |  | < 25% | + (activity was measured to be greater than 5.0 μM) |  |  | 
4 | CCOC(=O)N1[C@@H]2CC[C@@H]1CC(N1CCC(c3cc(NC(C)=O)ccc3OC)CC1)C2 (some centres unmarked) [Compound 338] | 25 to 100% |  | 25 to 100% |  |  |  | < 25% |  |  |  | 
5 | COc1ccc(OC)c(C2CCN(CC3C[C@H]4CC[C@H]3C4)CC2)c1 (some centres unmarked) [Compound 344] | < 25% | + (activity was measured to be greater than 5.0 μM) | 25 to 100% | ++ (activity was measured to be from 1.0 μM to 5.0 μM) |  |  | < 25% | + (activity was measured to be greater than 5.0 μM) |  |  | 
6 | COc1ccccc1C1(C#N)CCN(C2CCCCC2)CC1 [Compound 348] | 25 to 100% | + (activity was measured to be greater than 5.0 μM) | 25 to 100% | ++ (activity was measured to be from 1.0 μM to 5.0 μM) |  |  | < 25% | + (activity was measured to be greater than 5.0 μM) |  |  | 
7 | COc1ccccc1C1(C#N)CCN(C[C@@H]2C[C@H]3C=C[C@H]2C3)CC1 [Compound 359] | 25 to 100% | ++ (activity was measured to be from 1.0 μM to 5.0 μM) | 25 to 100% | +++ (activity was measured to be less than 1.0 μM) |  |  | 25 to 100% | ++ (activity was measured to be from 1.0 μM to 5.0 μM) |  |  | 
8 | COc1ccccc1C1(C#N)CCN(C2CCOCC2)CC1 [Compound 379] |  | + (activity was measured to be greater than 5.0 μM) |  | + (activity was measured to be greater than 5.0 μM) |  |  |  | + (activity was measured to be greater than 5.0 μM) | < 25% | < 25% | < 25%
9 | COc1ccc(Cl)cc1C1(O)CCN(C2CCCCCC2)CC1 [Compound 380] |  | + (activity was measured to be greater than 5.0 μM) |  | ++ (activity was measured to be from 1.0 μM to 5.0 μM) |  |  |  | + (activity was measured to be greater than 5.0 μM) | < 25% | 25 to 100% | < 25%
10 | Cc1ccc(F)cc1C1CCN(C2C[C@H]3CC[C@H](C2)C3)CC1 (some centres unmarked) [Compound 385] |  | ++ (activity was measured to be from 1.0 μM to 5.0 μM) |  | +++ (activity was measured to be less than 1.0 μM) |  |  |  | + (activity was measured to be greater than 5.0 μM) | 25 to 100% | 25 to 100% | < 25%
11 | COc1ccc(F)cc1C1CCN(C2CCC3CCC2C3)CC1 (centres unmarked) [Compound 412] |  | +++ (activity was measured to be less than 1.0 μM) |  | +++ (activity was measured to be less than 1.0 μM) |  |  |  | ++ (activity was measured to be from 1.0 μM to 5.0 μM) | 25 to 100% | 25 to 100% | < 25%
12 | COc1ccccc1C1(C#N)CCN(C2CC3CCC(C3)C2)CC1 (centres unmarked) [Compound 421] |  | ++ (activity was measured to be from 1.0 μM to 5.0 μM) |  | +++ (activity was measured to be less than 1.0 μM) |  |  |  | ++ (activity was measured to be from 1.0 μM to 5.0 μM) | 25 to 100% | 25 to 100% | < 25%
